Legend:
[1] = biological target: T1, A. thaliana Nudx1 (Arabidopsis thaliana, UniProt Q9CA40); experiment: Phosphatase activity / steady-state kinetics of recombinant AtNudx1 (BIOMOL Green phosphate detection); type: biochemical; settings: for Km / kcat: substrate of AtNudx1, 100 mM TAPS pH 8.5, 10 mM MgCl2, 37° C., means ± SD, n = 3
T1 construct: The open reading frames (ORFs) of Arabidopsis Nudix genes were PCR-amplified from cDNA; His8 (N, cleaved yes); made in house; host or cells: E. coli BL21(DE3)
Procedure: (§1) After removal of the cell debris by centrifugation, expressed proteins were purified from the supernatants by immobilized metal-affinity chromatography with HisPur Ni-NTA resin (ThermoFisher Scientific). Pure proteins were eluted with 50 mM Tris-HCL pH 8.0, 0.5 M NaCl buffer supplemented with 250 mM imidazole followed by buffer exchange to 50 mM Tris-HCl pH 8.0 and 0.2 M NaCl for storage. For the crystal screening and steady-state kinetic analysis described below, the N-terminal His8-tags of AtNudx1 and AtNudx3 were removed with thrombin and remaining histidine-tagged protein was removed by passing over HisPur Ni-NTA resin. AtNudx1 and AtNudx3 were further purified by size-exclusion chromatography on a Superdex 200 16/60 column (GE Lifesciences) equilibrated and eluted with 50 mM Tris-HCl pH 8.0 supplemented with 0.2 M NaCl and 2 mM dithiothreitol.
(§2) All enzyme assays described in the present disclosure were performed as follows. Phosphatase activity was monitored at 37° C. using BIOMOL Green reagent (Enzo Life Sciences) to detect and quantify released phosphate at 623 nm using a phosphate standard curve. The optimum pH for activity was determined using a three-component buffer system of 50 mM acetic acid, 50 mM MES, and 100 mM Tris-HCl with 0.1 mM IPP as substrate. Magnesium ion dependence was investigated with 1 mM to 20 mM MgCl2. […] Reactions were initiated by the addition of enzyme and quenched by the addition of BIOMOL Green.
(§3) Controls included assays without enzyme and without substrate. All enzyme assays were performed at an appropriate enzyme concentration so that the reaction velocity was linear and proportional to the enzyme concentration during the incubation time period. Kinetic data was fitted using Prism (GraphPad Software) to the Michaelis-Menten equation to compute KM and kcat. At least triplicate assays were performed for all data points. Resulting Findings and Systems, Methods, and Platforms

[2] = biological target: T2, A. thaliana Nudx3 (Arabidopsis thaliana, UniProt Q8L831); experiment: Phosphatase activity / steady-state kinetics of recombinant AtNudx3 (BIOMOL Green phosphate detection); type: biochemical; settings: for Km / kcat: substrate of AtNudx3, 100 mM TAPS pH 8.5, 10 mM MgCl2, 37° C., means ± SD, n = 3
T2 construct: His8 (N, cleaved yes); made in house; host or cells: E. coli BL21(DE3)
T2 sequence (Q8L831 1-772): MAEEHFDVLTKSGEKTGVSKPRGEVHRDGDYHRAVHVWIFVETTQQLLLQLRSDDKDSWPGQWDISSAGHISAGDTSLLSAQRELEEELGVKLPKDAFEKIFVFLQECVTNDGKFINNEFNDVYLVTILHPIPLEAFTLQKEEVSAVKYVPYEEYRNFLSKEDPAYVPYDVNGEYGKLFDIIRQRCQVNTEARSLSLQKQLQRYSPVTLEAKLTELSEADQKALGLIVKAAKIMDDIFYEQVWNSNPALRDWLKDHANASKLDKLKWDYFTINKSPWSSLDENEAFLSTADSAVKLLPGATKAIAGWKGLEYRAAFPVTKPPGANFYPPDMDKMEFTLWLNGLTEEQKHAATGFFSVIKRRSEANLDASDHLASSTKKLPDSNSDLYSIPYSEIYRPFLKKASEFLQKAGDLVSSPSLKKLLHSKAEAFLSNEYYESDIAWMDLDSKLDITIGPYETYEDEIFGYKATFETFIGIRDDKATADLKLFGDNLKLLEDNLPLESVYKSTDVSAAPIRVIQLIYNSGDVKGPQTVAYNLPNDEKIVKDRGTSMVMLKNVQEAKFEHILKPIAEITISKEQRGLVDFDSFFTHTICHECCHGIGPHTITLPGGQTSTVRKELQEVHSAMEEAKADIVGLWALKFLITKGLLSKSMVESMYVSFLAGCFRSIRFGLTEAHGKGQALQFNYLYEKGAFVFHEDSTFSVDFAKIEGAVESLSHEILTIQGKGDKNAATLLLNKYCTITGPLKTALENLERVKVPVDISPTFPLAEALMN
Procedure: as §1, §2, §3

[3] = system: FPP synthase; settings: cited from earlier work
[4] = biological target: T3, AtPMK (Arabidopsis thaliana, UniProt Q9C6T1); settings: substrate of Arabidopsis PMK (AtPMK, At1g31910); previous characterization; cited from earlier work
T3 sequence (Q9C6T1 1-505): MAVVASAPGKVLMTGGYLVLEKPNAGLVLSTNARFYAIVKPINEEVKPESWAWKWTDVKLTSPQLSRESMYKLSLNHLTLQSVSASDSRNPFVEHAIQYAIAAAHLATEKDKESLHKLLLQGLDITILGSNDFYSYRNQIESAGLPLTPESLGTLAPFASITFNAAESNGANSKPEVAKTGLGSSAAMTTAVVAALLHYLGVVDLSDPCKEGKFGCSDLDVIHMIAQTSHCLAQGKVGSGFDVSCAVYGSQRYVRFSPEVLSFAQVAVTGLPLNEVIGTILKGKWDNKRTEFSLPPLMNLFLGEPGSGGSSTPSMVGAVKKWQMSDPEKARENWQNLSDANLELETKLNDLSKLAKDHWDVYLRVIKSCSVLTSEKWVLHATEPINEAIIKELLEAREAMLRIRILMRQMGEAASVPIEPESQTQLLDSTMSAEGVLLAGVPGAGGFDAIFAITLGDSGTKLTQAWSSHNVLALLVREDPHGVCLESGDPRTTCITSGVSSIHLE

T1 sequence (Q9CA40 whole entry): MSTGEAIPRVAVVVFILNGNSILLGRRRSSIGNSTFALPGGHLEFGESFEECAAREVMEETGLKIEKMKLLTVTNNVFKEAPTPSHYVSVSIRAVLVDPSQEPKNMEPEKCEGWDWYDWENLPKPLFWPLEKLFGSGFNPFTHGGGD

For `CC(C)=CCOP(=O)(O)O` [DMAP, dimethylallyl phosphate], the “phosphatase activity with the compound as substrate” value (“phosphatase activity” for short) ([1]; AtNudx1) is given as “No phosphatase activity was detected”, the “phosphatase activity” value ([2]; AtNudx3) is given as “No phosphatase activity was detected” and the “inhibition of FPP synthase” value [3] is given as “competitively inhibited”.
For `CC(C)=CCC/C(C)=C/COP(=O)(O)OP(=O)(O)O` [GPP, geranyl diphosphate], the Km [1] was 8.3 ± 2.5 µM, the kcat [1] was 2.0 ± 0.3 s⁻¹ and the Km [2] was 53 ± 13 µM. For the same compound, the kcat [2] was 2.7 ± 0.3 s⁻¹.
For `CC(C)=CCC/C(C)=C/COP(=O)(O)O` [GP, geranyl phosphate], the “phosphatase activity” value ([1]; AtNudx1) was “No phosphatase activity was detected” and the “phosphatase activity” value ([2]; AtNudx3) was “No phosphatase activity was detected”.
With `C=C(C)CCOP(=O)(O)OP(=O)(O)O` [IPP, isopentenyl diphosphate] the “fold lower specific activity at pH 6.5 than at the optimal pH of 8.5” value ([1]; AtNudx1, IPP as substrate, 37° C.) was 7 fold, the Km [1] was 8 ± 0.6 µM and the kcat [1] was 1.11 ± 0.02 s⁻¹. The “fold higher catalytic efficiency” value ([2]; AtNudx3, compared to GPP and FPP as substrates) was 3 fold, the Km [2] was 36 ± 8 µM and the kcat [2] was 5.5 ± 0.3 s⁻¹.
In the case of `CC(C)=CCC/C(C)=C/CC/C(C)=C/COP(=O)(O)O` [FP, farnesyl phosphate], the “phosphatase activity” value ([1]; AtNudx1) is reported as “No phosphatase activity was detected” and the “phosphatase activity” value ([2]; AtNudx3) is reported as “No phosphatase activity was detected”.
For `Nc1nc2c([nH]c(=O)n2[C@H]2C[C@H](O)[C@@H](COP(=O)(O)OP(=O)(O)OP(=O)(O)O)O2)c(=O)[nH]1` [8-oxo-dGTP], the Km [1] was 33 ± 2 µM, the kcat [1] was 4.5 ± 0.1 s⁻¹ and the “phosphatase activity” value ([2]; AtNudx3) was “unable to dephosphorylate”.
With mevalonate diphosphate [(R)-MVAPP] the “fold less efficient as a substrate (catalytic efficiency)” value ([1]; AtNudx1, compared with IPP, DMAPP, GPP and FPP) was 100 fold, the Km [1] was 240 ± 60 µM and the kcat [1] was 0.51 ± 0.06 s⁻¹. For the same compound, the Km [2] was 125 ± 36 µM and the kcat [2] was 1.5 ± 0.2 s⁻¹.
For `C[C@@](O)(CCOP(=O)(O)O)CC(=O)O` [MVAP, phosphomevalonate], the “phosphatase activity” value ([1]; AtNudx1) is given as “No phosphatase activity was detected”, the “phosphatase activity” value ([2]; AtNudx3) is given as “No phosphatase activity was detected” and the Km [4] is given as 12 µM.

Reference: patent publication US12305177B2, “Methods and platforms for sustainable high yield terpenoid production” (Purdue Research Foundation, priority 2019, dated 2025)
